Test results published in ChEMBL document CHEMBL1130153, “Inhibition of melanoma cell binding to type IV collagen by analogs of cell adhesion regulator” (J Med Chem, 1997).
Where a SMILES comes first, the peptide text is derived from it. [ ]: non-standard residue; d: D form. pY = N[C@@H](Cc1ccc(OP(=O)(O)O)cc1)C(=O)O

Tests used:
[1] = Inhibition of melanoma cell adhesion to type IV collagen; format: functional, Homo sapiens
[2] = Inhibition of melanoma cell adhesion to type IV collagen;NE=no effect; format: functional, Homo sapiens

| Molecule | IC50 [1] [µM] | IC50 [2] |
| --- | --- | --- |
| CC[C@H](C)[C@H](NC(=O)[C@H](CCC(=O)O)NC(=O)[C@@H](N)C(C)C)C(=O)N[C@@H](CC(C)C)C(=O)N[C@@H](Cc1ccc(OP(=O)(O)O)cc1)C(=O)O (H-VEIL[pY]-OH) | 10 | – |
| H-VEILY-OH | 90 | – |
| H-YLIEV-OH | – | Not Active |
